From paper PMC10877733, “Discovery and Characterization of VU0542270, the First Selective Inhibitor of Vascular Kir6.1/SUR2B KATP Channels” (Molecular Pharmacology, 2024)

How the values were obtained:
[1] = test system: Kir6.1- or Kir6.2-containing channels in complex with either SUR2A or SUR2B; assay: Thallium flux, Kir6.1 or Kir6.2 co-expressed with SUR2A or SUR2B in transfected HEK-293 cells; type: cell-based; conditions: 3 µM, Fig. 4D
From the text: The pcDNA3.1-SUR2B plasmid was generously provided by Dr. Colin Nichols (Washington University). The pcDNA5/TO-Kir6.1 plasmid was synthesized by GenScript. Stably transfected tetracycline-regulated expression human embryonic kidney-293 (T-Rex-HEK293) cells expressing both plasmids were generated by cotransfecting cells with Lipofectamine LTX followed by antibiotic selection and clonal selection using the thallium flux assay described below. Monoclonal lines expressing robust pinacidil-activated thallium flux were selected for high KATP channel activity. T-Rex-HEK293 cells expressing Kir6.2/SUR1 were created as described previously ([Raphemot et al., 2014]). The cell culture media contained Dulbecco’s modified Eagle’s medium (Gibco, 11965-092) supplied with heat-inactivated FBS (bio-techne, Minneapolis, MN S11150H,10%), Blasticidine HCl (Gibco, A11139-03, 10 ug/mL), Penicillin-Streptomycin (Gibco, 15140-122, 2 mM), G418 Sulfate (CORNING, Corning, NY, 30-234-CR, 1 mg/mL), and Hygromycin B (Invitrogen, Carlsbad, CA, 10687-010, 250 ug/mL). […]
Quantitative thallium flux assays of Kir6.1/SUR2B activity were performed essentially as described previously for Kir6.2/SUR1 ([Raphemot et al., 2014]; [Kharade et al., 2019]). […] Dye-loaded cells were washed with assay buffer and transferred to a Panoptic Kinetic Imaging Plate Reader (Wavefront Bioscience, Franklin, TN). […]

[2] = Plasma binding by equilibrium dialysis, mouse; type: in vitro ADME; conditions: equilibrium dialysis 6 hours 37°C, read-out: Fu, plasma (mouse)
Method: (§1) Determination of VU0542270 fraction unbound (fu) in plasma from mouse, rat, and human was conducted in vitro via equilibrium dialysis using high-throughput dialysis (HTD) membrane plates. Dialysis membranes (four paired strips per HTD assay) were hydrated as described by the manufacturer and inserted into the HTD plate, which was assembled and prepared for sample addition by the dispensing of blank buffer [Delbecco’s phosphate buffered saline (DPBS), 100 µL/well] into the “top half” of each membrane-split well. VU0542270 was diluted into plasma from each species (5 µM final concentration), which was aliquoted in triplicate to the “bottom half” of the prepared HTD plate wells. The HTD plate was sealed and incubated for 6 hours at 37°C. Following incubation, each well (both top and bottom halves) was transferred (20 µL) to the corresponding well of a 96-shallow-well (V-bottom) plate. […]
(§2) fu was calculated as (analyte to IS mass spectrometry (MS) peak area ratio from Trans-buffer side)/(analyte to IS MS peak area ratio from Cis-plasma side). Mean values for each species were calculated from three replicates.

[3] = Plasma binding by equilibrium dialysis, rat; type: in vitro ADME; conditions: equilibrium dialysis 6 hours 37°C, read-out: Fu, plasma (rat)
Method: as §1, §2

[4] = biological target: T1, Kir3.1/Kir3.2 (Homo sapiens, UniProt P48051+P48549); assay: Thallium flux selectivity assay Kir3.1/Kir3.2; type: cell-based
T1 construct: expressed in transfected cells
T1 sequence (P48549 1-501): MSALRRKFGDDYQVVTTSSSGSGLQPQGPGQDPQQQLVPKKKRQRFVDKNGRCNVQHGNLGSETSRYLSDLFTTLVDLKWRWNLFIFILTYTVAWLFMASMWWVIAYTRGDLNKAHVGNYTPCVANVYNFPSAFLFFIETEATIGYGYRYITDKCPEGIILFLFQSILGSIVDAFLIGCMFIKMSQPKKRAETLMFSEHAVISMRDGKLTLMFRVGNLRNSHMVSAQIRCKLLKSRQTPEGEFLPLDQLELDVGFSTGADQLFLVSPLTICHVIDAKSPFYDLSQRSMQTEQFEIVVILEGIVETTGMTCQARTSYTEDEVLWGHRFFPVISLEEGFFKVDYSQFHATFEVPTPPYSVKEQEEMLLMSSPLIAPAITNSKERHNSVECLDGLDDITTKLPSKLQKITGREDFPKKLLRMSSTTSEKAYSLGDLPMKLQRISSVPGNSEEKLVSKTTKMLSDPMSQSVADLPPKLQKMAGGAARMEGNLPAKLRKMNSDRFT
T1 sequence (P48051 1-423): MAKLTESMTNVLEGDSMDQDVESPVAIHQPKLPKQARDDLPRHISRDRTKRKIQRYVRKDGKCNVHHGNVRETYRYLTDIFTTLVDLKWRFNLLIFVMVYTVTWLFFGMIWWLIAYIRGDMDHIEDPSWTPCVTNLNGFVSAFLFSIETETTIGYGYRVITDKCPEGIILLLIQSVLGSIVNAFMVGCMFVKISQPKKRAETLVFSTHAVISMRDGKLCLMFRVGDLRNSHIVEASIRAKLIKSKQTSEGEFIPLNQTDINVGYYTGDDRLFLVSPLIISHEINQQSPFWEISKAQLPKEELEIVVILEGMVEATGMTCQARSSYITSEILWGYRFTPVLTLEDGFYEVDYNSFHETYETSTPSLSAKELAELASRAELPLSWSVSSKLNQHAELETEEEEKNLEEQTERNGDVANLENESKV
Method: Quantitative thallium flux assays of Kir6.1/SUR2B activity were performed essentially as described previously for Kir6.2/SUR1 ([Raphemot et al., 2014]; [Kharade et al., 2019]). Stable T-Rex-HEK293-Kir6.1/SUR2B cells or transiently transfected HEK293T cells were plated in polyamine-coated, clear-bottomed, black-walled 384-well plates and were cultured (37°C/5% CO2) overnight in Dulbecco’s modified Eagle’s medium (Gibco, Carlsbad, CA, 11995-065) containing 10% FBS (2 mM Penicillin-Streptomycin). The following day, cells were washed with assay buffer (i.e., Hanks’ balanced salt solution/20 mM HEPES) and loaded for 1 hour with thallium sensor dye Brilliant Thallium (Ion Bioscience, San Marcos, TX) at room temperature. Dye-loaded cells were washed with assay buffer and transferred to a Panoptic Kinetic Imaging Plate Reader (Wavefront Bioscience, Franklin, TN). Control and test compound treatments were for 4 minutes prior to adding 0.5 mM chloride-free thallium stimulus buffer (Ion Bioscience) to initiate thallium flux. […] Selectivity assays against other Kir channels were performed essentially as described previously ([Kharade et al., 2018]; [McClenahan et al., 2022]).

fraction unbound at 6 h, 5 µM [2]: 0.01
fraction unbound at 6 h, 5 µM [3]: 0.01
IC50 [4]: > 30 µM
SMILES: Cc1nc(-c2cccs2)sc1CNC(=O)Nc1cccs1 [VU0542270]
inhibition of Kir6.1- or Kir6.2-containing channels with SUR2A or SUR2B [1]: inhibits
